System: Candida tropicalis MYA_3404 strain
Assay: toxicity test of substrates and product: growth of the strain in YNB medium
Conditions: 36 hours; for growth of the strain in the medium to which the substance was added, compared to the control: added at 5 g/L to YNB medium, 30° C., 200 rpm, FIG. 1

SMILES	growth of the strain in the medium to which the substance was added, compared to the control	cytotoxicity compared to the sebacic acid (5 g/L in YNB medium)
CCCCCCCCCC(=O)O [DA, decanoic acid]	did not grow	–
CCCCCCCCCC(=O)OC [DAME, decanoic acid methyl ester]	did not grow	stronger cytotoxicity
O=C(O)CCCCCCCCC(=O)O [sebacic acid]	the growth rate and the total cell mass of the strain decreased	–

From patent US11873517B2, “Candida tropicalis strain having improved tolerance to the cytotoxicity of substrates, and method for producing dicarboxylic acid using same” (priority 2018, dated 2024)
